Positions of bridges follow the written chain, without caps; N, C: chain ends. Non-standard residues stand in square brackets, D forms with d. Residues, ends and D or L forms follow the SMILES beside them. NMeW = CN[C@@H](Cc1c[nH]c2ccccc12)C(=O)O; Ala(2-furyl) = N[C@@H](Cc1ccco1)C(=O)O; NMeY = CN[C@@H](Cc1ccc(O)cc1)C(=O)O; hLeu = CC(C)CC[C@H](N)C(=O)O; NMeA = CN[C@@H](C)C(=O)O
target: T1, Calcium and integrin-binding protein 1 (Homo sapiens, UniProt Q99828); assay: Displacement of Alexa Fluor 647 labelled UNC10245092 peptide from CIB1 (unknown origin) preincubated for 20 mins followed by Alexa-CIB1 phage peptide addition and measured after 20 to 30 mins by TR-FRET assay
T1 sequence (Q99828 whole entry): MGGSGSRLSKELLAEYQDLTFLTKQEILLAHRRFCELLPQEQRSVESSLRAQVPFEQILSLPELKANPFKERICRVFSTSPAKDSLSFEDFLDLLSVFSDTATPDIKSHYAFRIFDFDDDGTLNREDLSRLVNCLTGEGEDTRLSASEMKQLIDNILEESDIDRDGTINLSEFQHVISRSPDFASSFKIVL

| IC50 | Compound |
| --- | --- |
| 0.012 µM | CC[C@H](C)[C@@H]1NC(=O)[C@H]([C@@H](C)O)NC(=O)[C@H](Cc2c[nH]c3ccccc23)NC(=O)[C@@H]2CCCN2C(=O)CNC(=O)[C@H]([C@@H](C)O)NC(=O)[C@H](Cc2ccc(O)cc2)NC(=O)CSC[C@H](C(N)=O)NC(=O)[C@H](Cc2c[nH]c3ccccc23)NC(=O)[C@H](CCCNC(=N)N)NC1=O |
| 0.84 µM | CCCC[C@@H]1NC(=O)[C@H](Cc2ccc(O)cc2)N(C)C(=O)CSC[C@@H](C(N)=O)NC(=O)[C@H](Cc2c[nH]c3ccccc23)NC(=O)[C@H](CC(N)=O)NC(=O)[C@H]([C@@H](C)CC)NC(=O)[C@H](CC(C)C)NC(=O)[C@H](Cc2c[nH]c3ccccc23)NC(=O)[C@H](Cc2ccc(O)cc2)NC(=O)[C@@H]2CCCN2C(=O)[C@@H](CCC(C)C)NC1=O |
| 3.9 µM | CCCC[C@@H]1NC(=O)[C@H](Cc2ccc(O)cc2)N(C)C(=O)CSC[C@@H](C(N)=O)NC(=O)[C@H](Cc2c[nH]c3ccccc23)NC(=O)[C@@H](Cc2ccco2)NC(=O)[C@H]([C@@H](C)CC)NC(=O)[C@H](CC(C)C)NC(=O)[C@H](Cc2c[nH]c3ccccc23)NC(=O)[C@H](Cc2ccc(O)cc2)N(C)C(=O)[C@@H]2CCCN2C(=O)[C@H](CCC(N)=O)NC1=O |
| 2.5 µM | CC[C@H](C)[C@@H]1NC(=O)[C@H](CC(C)C)NC(=O)[C@H](Cc2c[nH]c3ccccc23)NC(=O)[C@H](Cc2ccc(O)cc2)NC(=O)[C@@H]2CCCN2C(=O)[C@H](CCC(N)=O)NC(=O)[C@H](CCCCN)NC(=O)[C@H](C)NC(=O)CSC[C@@H](C(N)=O)NC(=O)[C@H](Cc2c[nH]c3ccccc23)NC(=O)[C@H](CC(N)=O)NC1=O ({CH2CO}-AKQPYWLINWC-NH2; thioether N-11) |
| 0.3 µM | CC[C@H](C)[C@@H]1NC(=O)[C@H](CC(C)C)NC(=O)[C@H](Cc2c[nH]c3ccccc23)NC(=O)[C@H](Cc2ccccc2)NC(=O)[C@@H]2CCCN2C(=O)[C@H](C)NC(=O)[C@H](C)NC(=O)[C@H](Cc2ccc(O)cc2)NC(=O)CSC[C@@H](C(N)=O)NC(=O)[C@H](Cc2c[nH]c3ccccc23)NC(=O)[C@H](CC(C)C)NC1=O ({CH2CO}-YAAPFWLILWC-NH2; thioether N-11) |
| 0.82 µM | CC[C@H](C)[C@@H]1NC(=O)[C@H](CC(C)C)NC(=O)[C@H](Cc2c[nH]c3ccccc23)NC(=O)[C@H](Cc2ccc(O)cc2)NC(=O)[C@@H]2CCCN2C(=O)[C@H](C)NC(=O)[C@H](C)NC(=O)[C@H](Cc2ccc(O)cc2)NC(=O)CSC[C@@H](C(N)=O)NC(=O)[C@H](Cc2c[nH]c3ccccc23)NC(=O)[C@H](C)NC1=O ({CH2CO}-YAAPYWLIAWC-NH2; thioether N-11) |
| 0.067 µM | CC[C@H](C)[C@@H]1NC(=O)[C@H](CC(C)C)NC(=O)[C@H](Cc2c[nH]c3ccccc23)NC(=O)[C@H](Cc2ccc(O)cc2)N(C)C(=O)[C@@H]2CCCN2C(=O)[C@H](CCC(N)=O)NC(=O)[C@H](C)NC(=O)[C@H](Cc2ccc(O)cc2)NC(=O)CSC[C@@H](C(N)=O)NC(=O)[C@H](Cc2c[nH]c3ccccc23)NC(=O)[C@H](CC(C)C)NC1=O ({CH2CO}-YAQP[NMeY]WLILWC-NH2; thioether N-11) |
| 0.04 µM | CC[C@H](C)[C@@H]1NC(=O)[C@H](CC(C)C)NC(=O)[C@H](Cc2c[nH]c3ccccc23)NC(=O)[C@H](Cc2ccc(O)cc2)NC(=O)[C@@H]2CCCN2C(=O)[C@H](C)NC(=O)[C@H](CCCCN)NC(=O)[C@H](Cc2ccc(O)cc2)NC(=O)CSC[C@@H](C(N)=O)NC(=O)[C@H](Cc2c[nH]c3ccccc23)NC(=O)[C@H](CC(N)=O)NC1=O ({CH2CO}-YKAPYWLINWC-NH2; thioether N-11) |
| 0.009 µM | CC[C@H](C)[C@@H]1NC(=O)[C@H](CC(C)C)NC(=O)[C@H](Cc2c[nH]c3ccccc23)NC(=O)[C@H](Cc2ccc(O)cc2)NC(=O)[C@H](C)NC(=O)[C@H](CCC(N)=O)NC(=O)[C@H](CCCCN)NC(=O)[C@H](Cc2ccc(O)cc2)NC(=O)CSC[C@@H](C(N)=O)NC(=O)[C@H](Cc2c[nH]c3ccccc23)NC(=O)[C@H](CC(N)=O)NC1=O ({CH2CO}-YKQAYWLINWC-NH2; thioether N-11) |
| 0.47 µM | CC[C@H](C)[C@@H]1NC(=O)[C@H](CC(C)C)NC(=O)[C@H](Cc2c[nH]c3ccccc23)NC(=O)[C@H](C)NC(=O)[C@@H]2CCCN2C(=O)[C@H](CCC(N)=O)NC(=O)[C@H](CCCCN)NC(=O)[C@H](Cc2ccc(O)cc2)NC(=O)CSC[C@@H](C(N)=O)NC(=O)[C@H](Cc2c[nH]c3ccccc23)NC(=O)[C@H](CC(N)=O)NC1=O ({CH2CO}-YKQPAWLINWC-NH2; thioether N-11) |
| 0.43 µM | CC[C@H](C)[C@@H]1NC(=O)[C@H](CC(C)C)NC(=O)[C@H](C)NC(=O)[C@H](Cc2ccc(O)cc2)NC(=O)[C@@H]2CCCN2C(=O)[C@H](CCC(N)=O)NC(=O)[C@H](CCCCN)NC(=O)[C@H](Cc2ccc(O)cc2)NC(=O)CSC[C@@H](C(N)=O)NC(=O)[C@H](Cc2c[nH]c3ccccc23)NC(=O)[C@H](CC(N)=O)NC1=O ({CH2CO}-YKQPYALINWC-NH2; thioether N-11) |
| 0.015 µM | CC[C@H](C)[C@@H]1NC(=O)[C@H](C)NC(=O)[C@H](Cc2c[nH]c3ccccc23)NC(=O)[C@H](Cc2ccc(O)cc2)NC(=O)[C@@H]2CCCN2C(=O)[C@H](CCC(N)=O)NC(=O)[C@H](CCCCN)NC(=O)[C@H](Cc2ccc(O)cc2)NC(=O)CSC[C@@H](C(N)=O)NC(=O)[C@H](Cc2c[nH]c3ccccc23)NC(=O)[C@H](CC(N)=O)NC1=O ({CH2CO}-YKQPYWAINWC-NH2; thioether N-11) |
| 0.17 µM | CC(C)C[C@@H]1NC(=O)[C@H](Cc2c[nH]c3ccccc23)NC(=O)[C@H](Cc2ccc(O)cc2)NC(=O)[C@@H]2CCCN2C(=O)[C@H](CCC(N)=O)NC(=O)[C@H](CCCCN)NC(=O)[C@H](Cc2ccc(O)cc2)NC(=O)CSC[C@@H](C(N)=O)NC(=O)[C@H](Cc2c[nH]c3ccccc23)NC(=O)[C@H](CC(N)=O)NC(=O)[C@H](C)NC1=O ({CH2CO}-YKQPYWLANWC-NH2; thioether N-11) |
| 0.076 µM | CC[C@H](C)[C@@H]1NC(=O)[C@H](CC(C)C)NC(=O)[C@H](Cc2c[nH]c3ccccc23)NC(=O)[C@H](Cc2ccc(O)cc2)NC(=O)[C@@H]2CCCN2C(=O)[C@H](CCC(N)=O)NC(=O)[C@H](CCCCN)NC(=O)[C@H](Cc2ccc(O)cc2)NC(=O)CSC[C@@H](C(N)=O)NC(=O)[C@H](Cc2c[nH]c3ccccc23)NC(=O)[C@H](C)NC1=O ({CH2CO}-YKQPYWLIAWC-NH2; thioether N-11) |
| 7.1 µM | CC[C@H](C)[C@@H]1NC(=O)[C@H](CC(C)C)NC(=O)[C@H](Cc2c[nH]c3ccccc23)NC(=O)[C@H](Cc2ccc(O)cc2)NC(=O)[C@@H]2CCCN2C(=O)[C@H](CCC(N)=O)NC(=O)[C@H](CCCCN)NC(=O)[C@H](Cc2ccc(O)cc2)NC(=O)CSC[C@@H](C(N)=O)NC(=O)[C@H](C)NC(=O)[C@H](CC(N)=O)NC1=O ({CH2CO}-YKQPYWLINAC-NH2; thioether N-11) |
| 0.059 µM | CC[C@H](C)[C@@H]1NC(=O)[C@H](CC(C)C)NC(=O)[C@H](Cc2c[nH]c3ccccc23)N(C)C(=O)[C@H](Cc2ccc(O)cc2)NC(=O)[C@@H]2CCCN2C(=O)[C@H](CCC(N)=O)NC(=O)[C@H](CCCCN)NC(=O)[C@H](Cc2ccc(O)cc2)NC(=O)CSC[C@@H](C(N)=O)NC(=O)[C@H](Cc2c[nH]c3ccccc23)NC(=O)[C@H](CC(N)=O)NC1=O ({CH2CO}-YKQPY[NMeW]LINWC-NH2; thioether N-11) |
| 0.065 µM | CC[C@H](C)[C@@H]1NC(=O)[C@H](CCCNC(=N)N)NC(=O)[C@H](Cc2c[nH]c3ccccc23)NC(=O)[C@H]([C@@H](C)O)NC(=O)[C@H](CO)NC(=O)[C@H](CCC(N)=O)NC(=O)[C@H](CCC(N)=O)NC(=O)[C@H](Cc2ccc(O)cc2)NC(=O)CSC[C@@H](C(N)=O)NC(=O)[C@H](Cc2c[nH]c3ccccc23)NC(=O)[C@H](CC(N)=O)NC1=O ({CH2CO}-YQQSTWRINWC-NH2; thioether N-11) |
| 0.015 µM | CC[C@H](C)[C@@H]1NC(=O)[C@H](CC(N)=O)NC(=O)[C@H](Cc2c[nH]c3ccccc23)NC(=O)[C@H]([C@@H](C)CC)NC(=O)[C@@H]2CCCN2C(=O)[C@H]([C@@H](C)O)NC(=O)[C@H]([C@@H](C)O)NC(=O)[C@H](Cc2ccc(O)cc2)NC(=O)CSC[C@@H](C(N)=O)NC(=O)[C@H](Cc2ccccc2)NC(=O)[C@H](CCCNC(=N)N)NC1=O ({CH2CO}-YTTPIWNIRFC-NH2; thioether N-11) |
| 0.054 µM | CC[C@H](C)[C@@H]1NC(=O)[C@H](CC(C)C)NC(=O)[C@H](Cc2c[nH]c3ccccc23)N(C)C(=O)[C@H](Cc2ccc(O)cc2)NC(=O)[C@@H]2CCCN2C(=O)[C@H](CCC(N)=O)NC(=O)[C@H](C)N(C)C(=O)[C@H](Cc2ccc(O)cc2)NC(=O)CSC[C@@H](C(N)=O)NC(=O)[C@H](Cc2c[nH]c3ccccc23)NC(=O)[C@H](CC(N)=O)NC1=O ({CH2CO}-Y[NMeA]QPY[NMeW]LINWC-NH2; thioether N-11) |
| 0.19 µM | CC[C@H](C)[C@@H]1NC(=O)[C@H](CC(C)C)NC(=O)[C@H](Cc2c[nH]c3ccccc23)N(C)C(=O)[C@H](Cc2ccc(O)cc2)NC(=O)[C@@H]2CCCN2C(=O)[C@H](CCC(N)=O)NC(=O)[C@H](C)N(C)C(=O)[C@H](Cc2ccc(O)cc2)NC(=O)CSC[C@@H](C(N)=O)NC(=O)[C@H](Cc2c[nH]c3ccccc23)NC(=O)[C@H](Cc2ccco2)NC1=O ({CH2CO}-Y[NMeA]QPY[NMeW]LI[Ala(2-furyl)]WC-NH2; thioether N-11) |
| 4.2 µM | CC[C@H](C)[C@@H]1NC(=O)[C@H](CC(C)C)NC(=O)[C@H](Cc2c[nH]c3ccccc23)NC(=O)[C@H](Cc2ccc(O)cc2)NC(=O)[C@@H]2CCCN2C(=O)[C@H](CCC(C)C)NC(=O)[C@H](C)N(C)C(=O)[C@H](Cc2ccc(O)cc2)NC(=O)CSC[C@@H](C(N)=O)NC(=O)[C@H](Cc2c[nH]c3ccccc23)NC(=O)[C@H](Cc2ccco2)NC1=O ({CH2CO}-Y[NMeA][hLeu]PYWLI[Ala(2-furyl)]WC-NH2; thioether N-11) |
